The values that follow come from patent publication US10647713B2 (Nimbus Lakshmi, Inc., priority 2016, dated 2020).

As usually defined, the Kd is the concentration at which binding is half-saturated.

Chain of human TYK2 (JH2domain-pseudokinase) (P29597 556-888): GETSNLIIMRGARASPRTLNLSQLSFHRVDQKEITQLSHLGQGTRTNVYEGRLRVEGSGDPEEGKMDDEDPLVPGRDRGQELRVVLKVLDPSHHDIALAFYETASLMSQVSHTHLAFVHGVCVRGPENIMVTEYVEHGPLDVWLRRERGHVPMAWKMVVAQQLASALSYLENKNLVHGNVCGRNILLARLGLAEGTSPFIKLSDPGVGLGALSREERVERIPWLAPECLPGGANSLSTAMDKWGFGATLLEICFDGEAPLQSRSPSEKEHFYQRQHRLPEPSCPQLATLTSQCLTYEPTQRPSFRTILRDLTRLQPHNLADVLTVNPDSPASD

This experiment concerns the target human TYK2 (JH2domain-pseudokinase) (Homo sapiens (Human), UniProt P29597). The experiment is described as follows: TYK2 JH2 Domain Binding Assay (KINOMEscan, DiscoveRx). To be noted: 11-point dilution, duplicate. An outline of the steps: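 Kd from duplicate 11-point 3-fold dilutions starting at 30,000 nM, fitted by Hill equation with slope fixed at −1. Compounds (final 0.9% DMSO) displace DNA-tagged HEK293-expressed TYK2 JH2 fusion (<0.1 nM) from ligand-coated beads over 1 h at room temperature; eluted kinase read by qPCR.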
Regarding `CS(=O)(=O)N(c1ccccc1Nc1cc(Nc2cccc(C#N)n2)nc2[nH]c(C(F)F)nc12)C(F)F` [I-229, N-(2-((5-((6-cyanopyridin-2-yl)amino)-2-(difluoromethyl)-3H-imidazo[4,5-b]pyridin-7-yl)amino)phenyl)-N-(difluoromethyl)methanesulfonamide], the Kd is 1 to 10 nM. For `CN(c1cc(-c2cnn(C)c2)ccc1Nc1cc(NC(=O)[C@@H]2CC2(F)F)nc2[nH]c(C(F)F)nc12)S(C)(=O)=O` [I-230, (S)—N-(2-(difluoromethyl)-7-((4-(1-methyl-1H-pyrazol-4-yl)-2-(N-methylmethylsulfonamido)phenyl)amino)-3H-imidazo[4,5-b]pyridin-5-yl)-2,2-difluorocyclopropane-1-carboxamide], the Kd is 0.5 to 1 nM. In turn, `CN(c1cc(-c2cnn(C)c2)ccc1Nc1cc(NC(=O)[C@H]2CC2(F)F)nc2[nH]c(C(F)F)nc12)S(C)(=O)=O` [I-231, (R)—N-(2-(difluoromethyl)-7-((4-(1-methyl-1H-pyrazol-4-yl)-2-(N-methylmethylsulfonamido)phenyl)amino)-3H-imidazo[4,5-b]pyridin-5-yl)-2,2-difluorocyclopropane-1-carboxamide] had a Kd of 1 to 10 nM. In the case of `CS(=O)(=O)c1cc(C2CCOCC2)ccc1Nc1cc(NC(=O)C2CC2)nc2[nH]c(C(F)F)nc12` [I-232, N-(2-(difluoromethyl)-7-((2-(methylsulfonyl)-4-(tetrahydro-2H-pyran-4-yl)phenyl)amino)-3H-imidazo[4,5-b]pyridin-5-yl)cyclopropanecarboxamide], the Kd lay in the range of 0.1 to 0.5 nM. Regarding `Cc1nc2c(Nc3ccc(-c4cnn(C)c4)cc3N(C)S(C)(=O)=O)cc(NC(=O)[C@@H]3CC3(F)F)nc2[nH]1` [I-233, (S)-2,2-difluoro-N-(2-methyl-7-((4-(1-methyl-1H-pyrazol-4-yl)-2-(N-methylmethylsulfonamido)phenyl)amino)-3H-imidazo[4,5-b]pyridin-5-yl)cyclopropane-1-carboxamide], the Kd is 0.1 to 0.5 nM. As to `Cc1nc2c(Nc3ccc(-c4cnn(C)c4)cc3N(C)S(C)(=O)=O)cc(NC(=O)[C@H]3CC3(F)F)nc2[nH]1` [I-234, (R)-2,2-difluoro-N-(2-methyl-7-((4-(1-methyl-1H-pyrazol-4-yl)-2-(N-methylmethylsulfonamido)phenyl)amino)-3H-imidazo[4,5-b]pyridin-5-yl)cyclopropane-1-carboxamide], the Kd fell in the range of 1 to 10 nM. The result for `CN(c1cc(-c2cnn(C)c2)ccc1Nc1cc(NC(=O)[C@H]2C[C@H]2F)nc2[nH]c(C(F)F)nc12)S(C)(=O)=O` [I-236, (1R, 2R)—N-(2-(difluoromethyl)-7-((4-(1-methyl-1H-pyrazol-4-yl)-2-(N-methylmethylsulfonamido)phenyl)amino)-3H-imidazo[4,5-b]pyridin-5-yl)-2-fluorocyclopropane-1-carboxamide] reads 0.1 to 0.5 nM; that for `Cn1ccc(-c2ccc(Nc3cc(NC(=O)[C@@H]4CC4(F)F)nc4[nH]c(C(F)F)nc34)c(S(C)(=O)=O)c2)n1` [I-237, (S)—N-(2-(difluoromethyl)-7-((4-(1-methyl-1H-pyrazol-3-yl)-2-(methylsulfonyl)phenyl)amino)-3H-imidazo[4,5-b]pyridin-5-yl)-2,2-difluorocyclopropane-1-carboxamide], 0.5 to 1 nM. The compound `Cn1ccc(-c2ccc(Nc3cc(NC(=O)[C@H]4CC4(F)F)nc4[nH]c(C(F)F)nc34)c(S(C)(=O)=O)c2)n1` [I-238, (R)—N-(2-(difluoromethyl)-7-((4-(1-methyl-1H-pyrazol-3-yl)-2-(methylsulfonyl)phenyl)amino)-3H-imidazo[4,5-b]pyridin-5-yl)-2,2-difluorocyclopropane-1-carboxamide] yielded a Kd of 1 to 10 nM. Compound `Cc1nc2c(Nc3ccc(-c4ccn(C)n4)cc3S(C)(=O)=O)cc(NC(=O)[C@@H]3CC3(F)F)nc2[nH]1` [I-239, (S)-2,2-difluoro-N-(2-methyl-7-((4-(1-methyl-1H-pyrazol-3-yl)-2-(methylsulfonyl)phenyl)amino)-3H-imidazo[4,5-b]pyridin-5-yl)cyclopropane-1-carboxamide] came in with a Kd of 0.1 to 0.5 nM.

In turn, `Cc1nc2c(Nc3ccc(-c4ccn(C)n4)cc3S(C)(=O)=O)cc(NC(=O)[C@H]3CC3(F)F)nc2[nH]1` [I-240, (R)-2,2-difluoro-N-(2-methyl-7-((4-(1-methyl-1H-pyrazol-3-yl)-2-(methylsulfonyl)phenyl)amino)-3H-imidazo[4,5-b]pyridin-5-yl)cyclopropane-1-carboxamide] had a Kd of 1 to 10 nM.

With `Cc1nc2c(Nc3ccc(-c4nn(C)cc4C)cc3S(C)(=O)=O)cc(NC(=O)C3CC3)nc2[nH]1` [I-241, N-(7-((4-(1,4-dimethyl-1H-pyrazol-3-yl)-2-(methylsulfonyl)phenyl)amino)-2-methyl-3H-imidazo[4,5-b]pyridin-5-yl)cyclopropanecarboxamide], the Kd was under 0.1 nM.

Take `CP(C)(=O)c1ccccc1Nc1cc(NC(=O)C2CC2)nc2[nH]c(C(F)F)nc12` [I-242, N-(2-(difluoromethyl)-7-((2-(dimethylphosphoryl)phenyl)amino)-3H-imidazo[4,5-b]pyridin-5-yl)cyclopropanecarboxamide]: the Kd was 0.5 to 1 nM. The result for `Cc1nc2c(Nc3ccccc3P(C)(C)=O)cc(NC(=O)C3CC3)nc2[nH]1` [I-243, N-(7-((2-(dimethylphosphoryl)phenyl)amino)-2-methyl-3H-imidazo[4,5-b]pyridin-5-yl)cyclopropanecarboxamide] reads over 10 nM.

As to `Cn1cnc(-c2ccc(Nc3cc(NC(=O)[C@H]4CC4(F)F)nc4[nH]c(C(F)F)nc34)c(S(C)(=O)=O)c2)c1` [I-244, (R)—N-(2-(difluoromethyl)-7-((4-(1-methyl-1H-imidazol-4-yl)-2-(methylsulfonyl)phenyl)amino)-3H-imidazo[4,5-b]pyridin-5-yl)-2,2-difluorocyclopropane-1-carboxamide], the dissociation constant Kd is 0.5 to 1 nM. Compound `Cn1cnc(-c2ccc(Nc3cc(NC(=O)[C@@H]4CC4(F)F)nc4[nH]c(C(F)F)nc34)c(S(C)(=O)=O)c2)c1` [I-245, (S)—N-(2-(difluoromethyl)-7-((4-(1-methyl-1H-imidazol-4-yl)-2-(methylsulfonyl)phenyl)amino)-3H-imidazo[4,5-b]pyridin-5-yl)-2,2-difluorocyclopropane-1-carboxamide] came in with a Kd of 1 to 10 nM. On to `Cc1cn(C)nc1-c1ccc(Nc2cc(NC(=O)C3CC3)nc3[nH]c(C(F)F)nc23)c(S(C)(=O)=O)c1` [I-246, N-(2-(difluoromethyl)-7-((4-(1,4-dimethyl-1H-pyrazol-3-yl)-2-(methylsulfonyl)phenyl)amino)-3H-imidazo[4,5-b]pyridin-5-yl)cyclopropanecarboxamide], for which the Kd is under 0.1 nM. The result for `CS(=O)(=O)c1cc([C@@H]2CCCCO2)ccc1Nc1cc(NC(=O)C2CC2)nc2[nH]c(C(F)F)nc12` [I-247, (S)—N-(2-(difluoromethyl)-7-((2-(methylsulfonyl)-4-(tetrahydro-2H-pyran-2-yl)phenyl)amino)-3H-imidazo[4,5-b]pyridin-5-yl)cyclopropanecarboxamide] reads 0.1 to 0.5 nM; that for `CS(=O)(=O)c1cc([C@H]2CCCCO2)ccc1Nc1cc(NC(=O)C2CC2)nc2[nH]c(C(F)F)nc12` [I-248, (R)—N-(2-(difluoromethyl)-7-((2-(methylsulfonyl)-4-(tetrahydro-2H-pyran-2-yl)phenyl)amino)-3H-imidazo[4,5-b]pyridin-5-yl)cyclopropanecarboxamide], under 0.1 nM.
